The assay deals with Plasmodium berghei. Put plainly: Luciferase/luciferin-expressing antifolate-resistant parasites were used to infect a culture of HepG2 cells that were pre-incubated with compounds. Infected hepatocytes emit light due to the luciferase reaction. Assay results are presented as the percent inhibition of light emission compared to control. […]. It is filed as functional. To be noted: sporozoite; for IC90: read-out: LUCIFERASE INFECTION ASSAY - IC90.

For orientation: IC50 means the point on the concentration scale where inhibition reaches its midpoint. The IC90 is the concentration at which the effect reaches the 90% level.

For the compound `CCOc1ccc(-c2nc(CSc3nc(C)nc4sc5c(c34)CCCC5)cs2)cc1OC`, the IC90 was more than 10 µM. Besides, the IC50 (FFLUC_HILL_SLOPE 22.7, FFLUC_R_SQUARED 0.174, read-out: LUCIFERASE INFECTION ASSAY - IC50) was more than 10 µM.
In the case of `COc1ccc(C(C)(C)C)cc1NC(=O)c1ccc(Cl)c(S(=O)(=O)N2CCc3ccccc32)c1`, the IC90 is more than 10 µM. In addition, the IC50 (FFLUC_HILL_SLOPE 21.6, FFLUC_R_SQUARED 0.0861, HEPG2TOX_HILL_SLOPE 0.0233, HEPG2TOX_R_SQUARED 0.0468, PBLUC_HILL_SLOPE 7.45, PBLUC_R_SQUARED 0.387, read-out: LUCIFERASE INFECTION ASSAY - IC50) came out at 8.38 µM.
For `Clc1cccc(-c2[nH]nc3nccc(-c4ccc(N5CCNCC5)cc4)c23)c1`, the IC90 came to 4.08 µM. Further, where the note is “FFLUC_HILL_SLOPE 19.9, FFLUC_R_SQUARED 0.198, HEPG2TOX_HILL_SLOPE 3.67, HEPG2TOX_R_SQUARED 0.922, PBLUC_HILL_SLOPE 10.3, PBLUC_R_SQUARED 0.464, read-out: LUCIFERASE INFECTION ASSAY - IC50”, the IC50 is 3.3 µM.
As for `CCn1c2ccccc2c2cc(NC(=O)COC(=O)CCNS(=O)(=O)c3cccc(C)c3)ccc21`, the IC90 was more than 10 µM. The IC50 (FFLUC_HILL_SLOPE 22.4, FFLUC_R_SQUARED 0.497, HEPG2TOX_HILL_SLOPE 9.12, HEPG2TOX_R_SQUARED 0.733, read-out: LUCIFERASE INFECTION ASSAY - IC50) is more than 10 µM.
As to `Cc1nn2c(=O)c(Cc3cccc(Cl)c3)c(C)[nH]c2c1-c1ccccc1`, the IC90 amounted to 2.81 µM. The IC50 (FFLUC_HILL_SLOPE 22.4, FFLUC_R_SQUARED 0.436, HEPG2TOX_HILL_SLOPE 3.67, HEPG2TOX_R_SQUARED 0.334, PBLUC_HILL_SLOPE 3.2, PBLUC_R_SQUARED 0.748, read-out: LUCIFERASE INFECTION ASSAY - IC50) is 1.41 µM.
As to `CN(c1ccccc1)S(=O)(=O)c1ccc(C(=O)Nc2nc(-c3cc(Cl)sc3Cl)cs2)cc1`, the IC90 turned out to be 8.48 µM. Besides, the IC50 (FFLUC_HILL_SLOPE 19.7, FFLUC_R_SQUARED 0.521, HEPG2TOX_HILL_SLOPE 3.83, HEPG2TOX_R_SQUARED 0.989, PBLUC_HILL_SLOPE 4.8, PBLUC_R_SQUARED 0.68, read-out: LUCIFERASE INFECTION ASSAY - IC50) is 5.36 µM.
With `COc1cc2c(cc1OC)C(c1cccs1)N(CC(=O)Nc1ccccc1C(F)(F)F)CC2` (stereo not drawn), the IC90 was more than 10 µM. For the same compound, for the setting “FFLUC_HILL_SLOPE 19.7, FFLUC_R_SQUARED 0.151, HEPG2TOX_HILL_SLOPE 1.77, HEPG2TOX_R_SQUARED 0.955, PBLUC_HILL_SLOPE 2.27, PBLUC_R_SQUARED 0.356, read-out: LUCIFERASE INFECTION ASSAY - IC50”, the IC50 amounted to 5.2 µM.
With `O=C1C=CC(=O)N1c1ccccc1OC(F)(F)F`, the IC90 is more than 12.8 µM. For the same compound, the IC50 (FFLUC_HILL_SLOPE 21.4, FFLUC_R_SQUARED 0.595, PBLUC_HILL_SLOPE 3.16, PBLUC_R_SQUARED 0.111, read-out: LUCIFERASE INFECTION ASSAY - IC50) was 8.21 µM.
Take `O=C(OCc1csc(-c2ccccc2)n1)c1cc(O)c2ccccc2c1O`: the IC90 was more than 10 µM. Further, the IC50 (FFLUC_HILL_SLOPE 21.7, FFLUC_R_SQUARED 0.124, read-out: LUCIFERASE INFECTION ASSAY - IC50) was more than 10 µM.
Regarding `COc1ccc(-c2cnc3ccc(-c4cccc(OC(F)(F)F)c4)nn23)cc1OC`, the IC90 turned out to be 1.23 µM. Also, where the note is “FFLUC_HILL_SLOPE 21.1, FFLUC_R_SQUARED 0.421, PBLUC_HILL_SLOPE 16.1, PBLUC_R_SQUARED 0.675, read-out: LUCIFERASE INFECTION ASSAY - IC50”, the IC50 stood at 1.08 µM.
On to `CCCCNC(=O)c1c(NC(=O)c2ccc(F)cc2)nc2ccccn12`, for which the IC90 was 3.43 µM. Besides, the IC50 (FFLUC_HILL_SLOPE 20.6, FFLUC_R_SQUARED 0.0581, HEPG2TOX_HILL_SLOPE 2.28, HEPG2TOX_R_SQUARED 0.75, PBLUC_HILL_SLOPE 12.8, PBLUC_R_SQUARED 0.452, read-out: LUCIFERASE INFECTION ASSAY - IC50) is 2.88 µM.
Regarding `Cc1cccc(NC(=O)NC(=O)CSc2ccc(S(=O)(=O)N(C)C)cn2)c1C`, the IC90 was more than 10 µM. The half-maximal inhibitory concentration (IC50) (FFLUC_HILL_SLOPE 22.1, FFLUC_R_SQUARED 0.241, read-out: LUCIFERASE INFECTION ASSAY - IC50) was more than 10 µM.
`Cn1c(-c2ccccc2)c(C(Nc2ccccn2)c2ccccc2O)c2ccccc21` (stereo not drawn): the IC90 was more than 10 µM. Under “FFLUC_HILL_SLOPE 22.7, FFLUC_R_SQUARED 0.0514, read-out: LUCIFERASE INFECTION ASSAY - IC50”, the IC50 was more than 10 µM.
With `Cc1ccnc(NC(c2cccc(C)n2)c2ccc3cccnc3c2O)c1` (stereo not drawn), the IC90 is more than 9.26 µM. Also, where the note is “FFLUC_HILL_SLOPE 20.2, FFLUC_R_SQUARED 0.523, HEPG2TOX_HILL_SLOPE 12.4, HEPG2TOX_R_SQUARED 0.193, PBLUC_HILL_SLOPE 13.3, PBLUC_R_SQUARED 0.0907, read-out: LUCIFERASE INFECTION ASSAY - IC50”, the IC50 came to 7.89 µM.
As to `O=c1c(Cl)c(Cl)cnn1Cc1nc2cc(Cl)ccc2n1Cc1ccccc1`, the IC90 is more than 10 µM. Besides, the IC50 (FFLUC_HILL_SLOPE 21.9, FFLUC_R_SQUARED 0.587, HEPG2TOX_HILL_SLOPE 12.6, HEPG2TOX_R_SQUARED 0.77, read-out: LUCIFERASE INFECTION ASSAY - IC50) was more than 10 µM.
With `NC(=NNC(=S)Nc1ccccc1C(F)(F)F)c1ccccn1`, the IC90 was 2.78 µM. The IC50 (FFLUC_HILL_SLOPE 21.9, FFLUC_R_SQUARED 0.597, HEPG2TOX_HILL_SLOPE 0.969, HEPG2TOX_R_SQUARED 0.909, PBLUC_HILL_SLOPE 1.81, PBLUC_R_SQUARED 0.836, read-out: LUCIFERASE INFECTION ASSAY - IC50) came to 0.826 µM.
Take `Cc1cc2oc(=O)cc(CN3CCC(c4c[nH]c5ccccc45)CC3)c2cc1C`: the IC90 was more than 10 µM. The IC50 (FFLUC_HILL_SLOPE 22.3, FFLUC_R_SQUARED 0.464, read-out: LUCIFERASE INFECTION ASSAY - IC50) was more than 10 µM.
Regarding `Cc1cc(C)c(C)c(S(=O)(=O)N2CCC(C(=O)Nc3nc(-c4ccc[nH]4)cs3)CC2)c1C`, the IC90 is more than 10 µM. Also, the IC50 (FFLUC_HILL_SLOPE 22.1, FFLUC_R_SQUARED 0.531, read-out: LUCIFERASE INFECTION ASSAY - IC50) was more than 10 µM.
On to `Cc1ccc(Cn2nc(C)cc2C(=O)Sc2ccc(Cl)cc2)cc1`, for which the IC90 was more than 9.25 µM. The IC50 (FFLUC_HILL_SLOPE 19.8, FFLUC_R_SQUARED 0.763, PBLUC_HILL_SLOPE 2.54, PBLUC_R_SQUARED 0.663, read-out: LUCIFERASE INFECTION ASSAY - IC50) turned out to be 5.77 µM.
Consider `O=c1cc(CSc2nc3ccccc3c(=O)n2Cc2ccccc2)c2cc(O)c(O)cc2o1`, for which the IC90 is more than 10 µM. For the same compound, the IC50 (FFLUC_HILL_SLOPE 22, FFLUC_R_SQUARED 0.332, read-out: LUCIFERASE INFECTION ASSAY - IC50) was more than 10 µM.
`Cc1[nH]c2ccc(C(=O)Nc3ccc(N4CCOCC4)nc3)cc2c1C`: the IC90 is more than 10 µM. Moreover, for the setting “FFLUC_HILL_SLOPE 22.7, FFLUC_R_SQUARED 0.475, read-out: LUCIFERASE INFECTION ASSAY - IC50”, the IC50 was more than 10 µM.
Take `O=S(=O)(c1cc(C(F)(F)F)cc(C(F)(F)F)c1)N1CCC(C(c2ccccc2)c2ccccc2)CC1`: the IC90 was more than 6.26 µM. In addition, for the setting “FFLUC_HILL_SLOPE 21.5, FFLUC_R_SQUARED 0.833, read-out: LUCIFERASE INFECTION ASSAY - IC50”, the IC50 is more than 6.26 µM.
As to `CCn1c(-c2ccccc2)c(C(=O)Cn2ncc(Cl)c(Cl)c2=O)c2ccccc21`, the IC90 is more than 10 µM. Where the note is “FFLUC_HILL_SLOPE 22, FFLUC_R_SQUARED 0.674, read-out: LUCIFERASE INFECTION ASSAY - IC50”, the 50% inhibitory concentration (IC50) is more than 10 µM.
On to `CO/N=C1\CCCc2c(C(=O)N/N=C/c3ccccc3Cl)sc(SC)c21`, for which the IC90 is 1.81 µM. For the same compound, the IC50 (FFLUC_HILL_SLOPE 19.7, FFLUC_R_SQUARED 0.147, HEPG2TOX_HILL_SLOPE 0.857, HEPG2TOX_R_SQUARED 0.906, PBLUC_HILL_SLOPE 1.47, PBLUC_R_SQUARED 0.897, read-out: LUCIFERASE INFECTION ASSAY - IC50) is 0.406 µM.
As to `Cc1ccc(C2=NN(C(=O)Cn3nc(C)c(S(=O)(=O)N(C)C)c3C)C(c3ccco3)C2)cc1` (stereo not drawn), the IC90 was more than 10 µM. Also, the IC50 (FFLUC_HILL_SLOPE 21, FFLUC_R_SQUARED 0.497, read-out: LUCIFERASE INFECTION ASSAY - IC50) is more than 10 µM.
As for `CC1Cc2ccccc2N1C(=O)CSC1=NNC(=C2N=Nc3ccccc32)N1c1ccccc1` (stereo not drawn), the IC90 came out at 8.33 µM. In addition, the IC50 (FFLUC_HILL_SLOPE 19.6, FFLUC_R_SQUARED 0.491, PBLUC_HILL_SLOPE 5.23, PBLUC_R_SQUARED 0.568, read-out: LUCIFERASE INFECTION ASSAY - IC50) worked out at 5.48 µM.
For the compound `COc1ccc(O)c(C=C(c2nc3ccccc3s2)c2nc3ccccc3s2)c1`, the IC90 is more than 10 µM. Also, the IC50 (FFLUC_HILL_SLOPE 21.2, FFLUC_R_SQUARED 0.491, read-out: LUCIFERASE INFECTION ASSAY - IC50) was more than 10 µM.
Consider `Cc1nn2c(=O)cc(CSc3ccc(Cl)cc3)[nH]c2c1-c1ccccc1`, for which the IC90 was 1.17 µM. For the same compound, the IC50 (FFLUC_HILL_SLOPE 20.8, FFLUC_R_SQUARED 0.612, HEPG2TOX_HILL_SLOPE 1.69, HEPG2TOX_R_SQUARED 0.683, PBLUC_HILL_SLOPE 14, PBLUC_R_SQUARED 0.557, read-out: LUCIFERASE INFECTION ASSAY - IC50) amounted to 0.998 µM.
Take `O=C1C=CC(=O)N1c1ccc(Cl)cc1`: the IC90 is more than 15.9 µM. Besides, the IC50 (FFLUC_HILL_SLOPE 21.9, FFLUC_R_SQUARED 0.305, PBLUC_HILL_SLOPE 2.09, PBLUC_R_SQUARED 0.529, read-out: LUCIFERASE INFECTION ASSAY - IC50) is 12.2 µM.

Values taken from ChEMBL document CHEMBL4483862, “Open-source discovery of chemical leads for next-generation chemoprotective antimalarials” (2018).
